These results are taken from ChEMBL document CHEMBL4308885, “The development of myeloperoxidase inhibitors” (Bioorg Med Chem Lett, 2019).

Structures are written as SMILES.

Assay [1] deals with T1, Myeloperoxidase (Homo sapiens, UniProt P05164).
T1 sequence (P05164 whole entry): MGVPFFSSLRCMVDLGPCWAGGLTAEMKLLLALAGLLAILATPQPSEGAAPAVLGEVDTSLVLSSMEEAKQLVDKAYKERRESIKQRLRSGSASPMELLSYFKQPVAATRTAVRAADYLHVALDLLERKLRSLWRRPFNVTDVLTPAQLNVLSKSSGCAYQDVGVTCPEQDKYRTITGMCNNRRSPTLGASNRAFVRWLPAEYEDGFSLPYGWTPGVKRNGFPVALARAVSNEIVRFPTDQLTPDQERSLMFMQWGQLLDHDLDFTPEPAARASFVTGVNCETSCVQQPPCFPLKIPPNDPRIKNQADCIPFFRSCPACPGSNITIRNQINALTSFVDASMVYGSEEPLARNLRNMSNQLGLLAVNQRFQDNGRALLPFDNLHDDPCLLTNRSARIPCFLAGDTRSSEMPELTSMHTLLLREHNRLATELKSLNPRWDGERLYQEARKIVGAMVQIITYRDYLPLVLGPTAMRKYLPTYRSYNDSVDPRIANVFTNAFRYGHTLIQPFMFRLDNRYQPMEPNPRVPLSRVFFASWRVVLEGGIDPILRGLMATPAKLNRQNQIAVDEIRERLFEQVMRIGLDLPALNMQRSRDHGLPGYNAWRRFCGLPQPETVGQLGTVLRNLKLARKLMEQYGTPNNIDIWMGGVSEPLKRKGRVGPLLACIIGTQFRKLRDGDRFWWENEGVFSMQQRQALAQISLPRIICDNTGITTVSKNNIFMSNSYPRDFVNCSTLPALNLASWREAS
The experiment in a line: Inhibition of MPO in human neutrophils using H2O2 as substrate measured after 5 mins.

In assay [2] the target is T1, Myeloperoxidase. Description: Inhibition of MPO (unknown origin).
In assay [3] the target is T2, Myeloperoxidase (Homo sapiens) (UniProt P05164).
T2 sequence (whole entry): T1 sequence (P05164 whole entry)
Description: Inhibition of MPO in human neutrophils assessed as reduction in PMA-stimulated HOCl production at 1 uM relative to control.

In assay [4] the target is T2, Myeloperoxidase (Homo sapiens). The experiment in a line: Inhibition of MPO in human neutrophils at 10'4 M using H2O2 as substrate measured for 30 secs in presence of o-dianisidine hydrochloride by spectrophotometric method relative to control.
For assay [5], the target named is T1, Myeloperoxidase. Description: Inhibition of MPO (unknown origin) using H2O2 as substrate.

As to `NNC(=O)c1ccc(O)cc1`, at Myeloperoxidase [1], half-maximal inhibition (IC50) required 2000 nM. Turning to `CC(C)OCCn1c(=S)[nH]c(=O)c2[nH]ccc21`, the IC50 against Myeloperoxidase [2] is 630 nM.

As to `O=c1[nH]c(=S)n(C[C@H]2CCCO2)c2nc[nH]c12`, the inhibition in assay [3] came out at 90%. As to `O=c1c(O)c(-c2ccc(O)c(O)c2)oc2cc(O)cc(O)c12`, the inhibition in assay [4] is 100%. In turn, `CC(=O)Oc1ccccc1C(=O)O` [ASPIRIN] had a half-maximal inhibitory concentration (IC50) against Myeloperoxidase [2] of 200000 nM. Same read-out and setting: for `Nc1ccc(S(=O)(=O)c2ccc(N)cc2)cc1` [DAPSONE] the value was 420 nM. The molecule `COc1ccc2[nH]cc(CCNC(C)=O)c2c1` [MELATONIN] came in with an IC50 on Myeloperoxidase [5] of 3000 nM. Still for that read-out and setting: for `N[C@@H](Cc1c[nH]c2ccccc12)C(=O)O` [TRYPTOPHAN] the value was 2250 nM.
